Target: T1, human PAD4 (Homo sapiens, UniProt Q9UM07)
T1 construct: human PAD4 (NM_012387), A2-P663, was PCR amplified; His-SUMO (N, cleaved yes); made in house; host or cells: E. coli BL21(DE3)
Assay: In vitro PAD4 BAEE biochemical assay
Settings: BAEE substrate 3 mM, 5 nM PAD4, 2 mM calcium chloride; geometric mean of multiple experiments
Procedure, shortened: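 PAD4 5 nM, CaCl2 2 mM, BAEE 3 mM final; 50 mM MOPS pH 7.6, 50 mM NaCl, 0.05% Tween-20, 2 mM DTT. Cpd + enzyme 30 min 25 °C; substrate 2 h 25 °C; EDTA stop; OPA detection 1 h. IC50 4-parameter fit.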

T1 sequence (Q9UM07 2-663): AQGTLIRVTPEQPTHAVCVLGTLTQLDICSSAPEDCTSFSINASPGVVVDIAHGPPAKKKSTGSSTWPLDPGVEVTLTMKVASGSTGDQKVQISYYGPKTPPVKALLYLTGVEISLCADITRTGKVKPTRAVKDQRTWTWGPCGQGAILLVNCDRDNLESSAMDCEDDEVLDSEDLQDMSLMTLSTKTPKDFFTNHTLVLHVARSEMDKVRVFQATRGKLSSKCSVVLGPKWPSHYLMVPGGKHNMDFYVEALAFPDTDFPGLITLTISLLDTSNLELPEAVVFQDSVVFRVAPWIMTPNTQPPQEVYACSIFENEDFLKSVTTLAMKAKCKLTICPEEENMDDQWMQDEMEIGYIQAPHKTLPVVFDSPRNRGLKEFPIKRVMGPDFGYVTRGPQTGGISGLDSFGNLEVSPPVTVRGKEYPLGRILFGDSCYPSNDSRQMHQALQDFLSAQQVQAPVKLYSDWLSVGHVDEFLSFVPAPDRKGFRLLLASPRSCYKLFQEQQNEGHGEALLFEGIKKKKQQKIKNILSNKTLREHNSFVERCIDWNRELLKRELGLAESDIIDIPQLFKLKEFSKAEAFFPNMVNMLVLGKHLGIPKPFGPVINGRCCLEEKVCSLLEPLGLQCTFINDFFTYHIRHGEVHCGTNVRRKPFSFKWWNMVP

Row | SMILES | IC50 [nM]
1 | COc1cc(C(=O)N2[C@H]3CC[C@@H]2[C@H](N)C3)cc2nc(-c3cc4ccc5nc4n3CCCCCn3nccc3C(=O)N[C@@H]5C)c(C)n12 [Example 32, (2~{R})-16-[7-[(1~{R},2~{R},4~{S})-2-amino-7-azabicyclo[2.2.1]heptane-7-carbonyl]-5-methoxy-3-methyl-imidazo[1,2-a]pyridin-2-yl]-2-methyl-3,8,9,15,21-pentazatetracyclo[13.5.2.0^{5,9}.0^{18,22}] docosa-1(21),5,7,16,18(22),19-hexaen-4-one] | 12
2 | COc1cc(C(=O)N2[C@H]3CC[C@@H]2[C@H](N)C3)cc2nc(-c3cc4ccc5nc4n3CCCCCn3ccc(n3)C(=O)N[C@@H]5C)c(C)n12 [Example 33, (2~{R})-15-[7-[(1~{R},2~{R),4~{S})-2-amino-7-azabicyclo[2.2.1]heptane-7-carbonyl]-5-methoxy-3-methyl-imidazo[1,2-a]pyridin-2-yl]-2-methyl-3,8,14,20,22-pentazatetracyclo[12.5.2.1^{5,8}.0^{17,21}] docosa-1(20),5(22),6,15,17(21),18-hexaen-4-one] | 248
3 | COc1cc(C(=O)N2[C@H]3CC[C@@H]2[C@H](N)C3)cc2nc(-c3cc4ccc5nc4n3CCCCn3nccc3C(=O)N[C@@H]5C)c(C)n12 [Example 34, (2~{R})-15-[7-[(1~{R},2~{R},4~{S})-2-amino-7-azabicyclo[2.2.1]heptane-7-carbonyl]-5-methoxy-3-methyl-imidazo[1,2-a]pyridin-2-yl]-2-methyl-3,8,9,14,20-pentazatetracyclo[12.5.2.0^{5,9}.0^{17,21}] henicosa-1(20),5,7,15,17(21),18-hexaen-4-one] | 54
4 | COc1cc(C(=O)N2[C@H]3CC[C@@H]2[C@H](N)C3)cc2nc(-c3cc4ccc5nc4n3CCCCCCn3nccc3C(=O)N[C@@H]5C)c(C)n12 [Example 35, (2~{R})-17-[7-[(1~{R},2~{R},4~{S})-2-amino-7-azabicyclo[2.2.1]heptane-7-carbonyl]-5-methoxy-3-methyl-imidazo[1,2-a]pyridin-2-yl]-2-methyl-3,8,9,16,22-pentazatetracyclo[14.5.2.0^{5,9).0^{19,23}] tricosa-1(22),5,7,17,19(23),20-hexaen-4-one] | 34
5 | COc1cc(C(=O)N2[C@H]3CC[C@@H]2[C@H](N)C3)cc2nc(-c3cc4ccc5nc4n3CCCCCCn3ccc(n3)C(=O)N[C@@H]5C)c(C)n12 [Example 36, (2~{R})-16-[7-[(1~{R},2~{R},4~{S})-2-amino-7-azabicyclo[2.2.1]heptane-7-carbonyl]-5-methoxy-3-methyl-imidazo[1,2-a]pyridin-2-yl]-2-methyl-3,8,15,21,23-pentazatetracyclo[13.5.2.1^{5,8}.0^{18,22}] tricosa-1(21),5(23),6,16,18(22),19-hexaen-4-one] | 372
6 | COc1cc(C(=O)N2[C@H]3CC[C@@H]2[C@H](N)C3)cc2nc(-c3cc4ccc5nc4n3CCCCc3cccc(n3)C(=O)N[C@@H]5C)n(C)c12 [Example 37, (2~{R})-15-[5-[(1~{R},2~{R},4~{S})-2-amino-7-azabicyclo[2.2.1]heptane-7-carbonyl]-7-methoxy-1-methyl-benzimidazol-2-yl]-2-methyl-3,14,20,22-tetrazatetracyclo[12.5.2.1^{5,9}.0^{17,21}] docosa-1(20),5,7,9(22),15,17(21),18-heptaen-4-one] | 553
7 | COc1cc(C(=O)N2[C@H]3CC[C@@H]2[C@H](N)C3)cc2nc(-c3cc4ccc5nc4n3CCCCc3cccc(c3F)C(=O)N[C@@H]5C)n(C)c12 [Example 38, (2~{R})-15-[5-[(1~{R},2~{R},4~{S})-2-amino-7-azabicyclo[2.2.1]heptane-7-carbonyl]-7-methoxy-1-methyl-benzimidazol-2-yl]-22-fluoro-2-methyl-3,14,20-triazatetracyclo[12.5.2.1^{5,9}.0^{17,21}] docosa-1(20),5,7,9(22),15,17(21),18-heptaen-4-one] | 1200
8 | COc1cc(C(=O)N2[C@H]3CC[C@@H]2[C@H](N)C3)cc2nc(-c3cc4ccc5nc4n3CCCCCc3ccccc3C(=O)N[C@@H]5C)n(C)c12 [Example 39, (2~{R})-17-[5-[(1~{R},2~{R),4~{S})-2-amino-7-azabicyclo[2.2.1]heptane-7-carbonyl]-7-methoxy-1-methyl-benzimidazol-2-yl]-2-methyl-3,16,22-triazatetracyclo[14.5.2.0^{5,10}.0^{19,23}] tricosa-1(22),5,7,9,17,19(23),20-heptaen-4-one] | 23
9 | COc1cc(C(=O)N2[C@H]3CC[C@@H]2[C@H](N)C3)cc2nc(-c3cc4ccc5nc4n3CCCCCCc3ccccc3C(=O)N[C@@H]5C)n(C)c12 [Example 40, (2~{R})-18-[5-[(1~{R},2~{R},4~{S})-2-amino-7-azabicyclo[2.2.1]heptane-7-carbonyl]-7-methoxy-1-methyl-benzimidazol-2-yl]-2-methyl-3,17,23-triazatetracyclo[15.5.2.0^{5,10).0^{20,24}] tetracosa-1(23),5,7,9,18,20(24),21-heptaen-4-one] | 24
10 | COc1cc(C(=O)N2[C@H]3CC[C@@H]2[C@H](N)C3)cc2nc(-c3cc4ccc5nc4n3CCCCOc3ccccc3C(=O)N[C@@H]5C)n(C)c12 [Example 41, (2~{R})-17-[5-[(1~{R),2~{R},4~{S})-2-amino-7-azabicyclo[2.2.1]heptane-7-carbonyl]-7-methoxy-1-methyl-benzimidazol-2-yl]-2-methyl-11-oxa-3,16,22-triazatetracyclo[14.5.2.0^{5,10}.0^{19,23}] tricosa-1(22),5,7,9,17,19(23),20-heptaen-4-one] | 268
11 | COc1cc(C(=O)N2C[C@H]3CC[C@@H]2[C@@H]3N)cc2nc(-c3cc4ccc5nc4n3CCCCCc3ccccc3C(=O)N[C@@H]5C)n(C)c12 [Example 42, (2~{R})-17-[5-[(1~{R},4~{R},7~{R})-7-amino-2-azabicyclo[2.2.1]heptane-2-carbonyl]-7-methoxy-1-methyl-benzimidazol-2-yl]-2-methyl-3,16,22-triazatetracyclo[14.5.2.0^{5,10}.0^{19,23}] tricosa-1(22),5,7,9,17,19(23),20-heptaen-4-one] | 108
12 | COc1cc(C(=O)N2CC[C@@H](OC)[C@@H](N)C2)cc2nc(-c3cc4ccc5nc4n3CCCCCc3ccccc3C(=O)N[C@@H]5C)n(C)c12 [Example 43, (2~{R})-17-[5-[(3~{S},4~{R})-3-amino-4-methoxy-piperidine-1-carbonyl]-7-methoxy-1-methyl-benzimidazol-2-yl]-2-methyl-3,16,22-triazatetracyclo[14.5.2.0^{5,10}.0^{19,23}] tricosa-1(22),5,7,9,17,19(23),20-heptaen-4-one] | 118
13 | COc1cc(C(=O)N2C[C@H](N)CCN2C)cc2nc(-c3cc4ccc5nc4n3CCCCCc3ccccc3C(=O)N[C@@H]5C)n(C)c12 [Example 44, (2~{R})-17-[5-[(5~{R})-5-amino-2-methyl-hexahydropyridazine-1-carbonyl]-7-methoxy-1-methyl-benzimidazol-2-yl]-2-methyl-3,16,22-triazatetracyclo[14.5.2.0^{5,10}.0^{19,23}] tricosa-1(22),5,7,9,17,19(23),20-heptaen-4-one] | 64
14 | COc1cc(C(=O)N2CCC[C@@H](N)C2)cc2nc(-c3cc4ccc5nc4n3CCCCCCC(=O)Nc3ccncc3-5)n(C)c12 [Example 45, 17-[5-[(3~{R})-3-aminopiperidine-1-carbonyl]-7-methoxy-1-methyl-benzimidazol-2-yl]-4,8,16,22-tetrazatetracyclo[14.5.2.0^{2,7}.0^{19,23}] tricosa-1(22),2,4,6,17,19(23),20-heptaen-9-one] | 4960
15 | COc1cc(C(=O)N2CCC[C@@H](N)C2)cc2nc(-c3cc4ccc5nc4n3CCCCCCNC(=O)c3ncccc3-5)n(C)c12 [Example 46, 17-[5-[(3~{R})-3-aminopiperidine-1-carbonyl]-7-methoxy-1-methyl-benzimidazol-2-yl]-6,9,16,22-tetrazatetracyclo[14.5.2.0^{2,7}.0^{19,23}] tricosa-1(22),2,4,6,17,19(23),20-heptaen-8-one] | 277
16 | COc1cc(C(=O)N2CCC[C@@H](N)C2)cc2nc(-c3cc4ccc5cc4n3CCCCCCC(=O)Nc3ccccc3-5)n(C)c12 [Example 47, 17-[5-[(3~{R})-3-aminopiperidine-1-carbonyl]-7-methoxy-1-methyl-benzimidazol-2-yl]-8,16-diazatetracyclo[14.5.2.0^{2,7}.0^{19,23}] tricosa-1(22),2,4,6,17,19(23),20-heptaen-9-one] | 458
17 | COc1cc(C(=O)N2[C@H]3CC[C@@H]2[C@H](N)C3)cc2nc(-c3cc4ccc5nc4n3CCCCCCNC(=O)c3ccccc3-5)n(C)c12 [Example 48, 17-[5-[(1~{R),2~{R},4~{S})-2-amino-7-azabicyclo[2.2.1]heptane-7-carbonyl]-7-methoxy-1-methyl-benzimidazol-2-yl]-9,16,22-triazatetracyclo[14.5.2.0^{2,7}.0^{19,23}] tricosa-1(22),2,4,6,17,19(23),20-heptaen-8-one] | 75
18 | COc1cc(C(=O)N2CCC[C@@H](N)C2)cc2nc(-c3cc4ccc5nc4n3CCCCCCNC(=O)c3ccccc3-5)n(C)c12 [Example 49, 17-[5-[(3~{R})-3-aminopiperidine-1-carbonyl]-7-methoxy-1-methyl-benzimidazol-2-yl]-9,16,22-triazatetracyclo[14.5.2.0^{2,7}.0^{19,23}] tricosa-1(22),2,4,6,17,19(23),20-heptaen-8-one] | 112
19 | COc1cc(C(=O)N2CCC[C@@H](N)C2)cc2nc(-c3cc4ccc5nc4n3CCCCCCNc3ncccc3-5)n(C)c12 [Example 50, [(3~{R})-3-amino-1-piperidyl]-[7-methoxy-1-methyl-2-(6,8,15,21-tetrazatetracyclo[13.5.2.0^{2,7}.0^{18,22}]docosa-1(21),2,4,6,16,18(22),19-heptaen-16-yl)benzimidazol-5-yl]methanone] | 10000

Reference: patent US11976083B2, “Inhibitors of peptidylarginine deiminases” (Gilead Sciences, Inc., priority 2020, dated 2024)
